Test results as given in US10513514B2, “Piperidine compounds as PCSK9 inhibitors” (SHENZHEN SALUBRIS PHARM CO LTD, priority 2017, dated 2019).

Key:
[1] = Research of pharmacokinetic properties in SD rats (bioavailability); type: in vivo; conditions: male SD rats; 1 mg/kg intravenous injection, 5 mg/kg by gavage
Experimental: Research of Pharmacokinetic Properties in SD Rats
This example was intended to evaluate the PK properties of test compound, and calculate the bioavailability in male SD rats. Each test compound used six male SD rats, Six male SD rats were randomly divided into two groups. Three rats were respectively administrated with the dose of 1 mg/kg by intravenous injection; the whole blood was collected at 0.0833, 0.25, 0.5, 1, 2, 4, 6, 8 and 24 h after administration and plasma samples were prepared. The other three rats were respectively administrated with the dose of 5 mg/kg by gavage, the whole blood was collected at 0.25, 0.5, 1, 2, 4, 6, 8 and 24 h after administration, and plasma samples were prepared. the concentration of the test compound in the plasma was tested by LC/MS/MS method, and relevant PK parameters was calculated with Phoenix WinNonlin 6.2.1.
For the bioavailability data, see table 2.

[2] = molecular target: PCSK9 (Homo sapiens (Human), UniProt Q8NBP7); experiment: In vitro screening experiment (AlphaLISA anti-PCSK9, PCSK9-Huh7 cells); type: cell-based; conditions: 20 h incubation, AlphaLISA reading
Experimental: 1) Preparation of 1× AlphaLISA test buffer solution:
2.5 ml of 10× AlphaLISA test buffer solution was added to 22.5 ml of Milli-Q water to produce the 1× AlphaLISA test buffer solution.
50 μL of 5 mg/mL Alpha LISA Anti-PCSK9 Acceptor beads and 50 μL of 500 nM Biotinylated Antibody Anti-PCSK9 were added to 9,900 μL of 1× AlphaLISA test buffer solution.
3) Preparation of 2× Streptavidin (SA) Donor beads (80 μg/mL):
200 μL of 5 mg/mL SA-Donor beads was added to 12,300 μL of 1× AlphaLISA test buffer solution.
3) 20 μL/pore mixture of 2.5× AlphaLISA Acceptor beads and Biotinylated Antibody Anti-PCSK9 was added, and incubated at 23° C. for 60 min.
4) 25 μL/pore 2× Streptavidin (SA) Donor beads were added; and incubated for 30 min at 23° C. (kept in dark place).
5) EnVision-Alpha Reader reading:
Date was analyzed with Prismsoftware (nonlinear regression (Sigmoidal dose-response-variable slope) Inhibition ratio %=100*(Sample reading−LC reading)/(HC reading−LC reading) Computational formula: […]

Compound | F in rats (%) [1] | IC50 [2]
CC1(C)ON=C(c2ccc(C(=O)N(c3ncccc3Cl)[C@@H]3CCCNC3)cc2)C1=O [WX001] | 83.9% | < 10 µM
CC1(C)ON=C(c2ccc(C(=O)N(c3ccccn3)[C@@H]3CCCNC3)cc2)C1=O [WX006] |  | < 10 µM
Cc1cc(F)cnc1N(C(=O)c1ccc(C2=NOC(C)(C)C2=O)cc1)[C@@H]1CCCNC1 [WX008] |  | < 10 µM
Cc1cc(Cl)cnc1N(C(=O)c1ccc(C2=NOC(C)(C)C2=O)cc1)[C@@H]1CCCNC1 [WX011] |  | < 10 µM
Cc1cnc(N(C(=O)c2ccc(C3=NOC(C)(C)C3=O)cc2)[C@@H]2CCCNC2)c(C)c1 [WX012] |  | < 10 µM
Cc1ccnc(N(C(=O)c2ccc(C3=NOC(C)(C)C3=O)cc2)[C@@H]2CCCNC2)c1Cl [WX015] |  | < 10 µM
Cc1cc(C2=NOC(C)(C)C2=O)ccc1C(=O)N(c1ncccc1C)[C@@H]1CCCNC1 [WX023] |  | < 10 µM
Cc1cc(C(=O)N(c2ncccc2C)[C@@H]2CCCNC2)ccc1C1=NOC(C)(C)C1=O [WX024] |  | < 10 µM
CC1(C)ON=C(c2ccc(C(=O)N(c3nccc4c3COC4)[C@@H]3CCCNC3)cc2)C1=O [WX026] |  | < 10 µM
Cc1cccnc1N(C(=O)c1ccc(C2=NOC(C)(C)C2=O)cc1F)[C@@H]1CCCNC1 [WX027] | 58.8% | < 10 µM
CO/N=C1/C(c2ccc(C(=O)N(c3ncccc3C)[C@@H]3CCCNC3)cc2)=NOC1(C)C [WX040] | 56.3% | < 10 µM
COCc1cccnc1N(C(=O)c1ccc(C2=NOC(C)(C)C2=O)cc1)[C@@H]1CCCNC1 [WX041] |  | < 10 µM

Next, values leading:

F in rats (%) [1] | IC50 [2] | Compound
20% |  | O=C(c1ccc(-n2nnc3cccnc32)cc1)N(c1ncccc1Cl)[C@@H]1CCCNC1 [PF-06446846, reference compound]
68.0% | < 10 µM | Cc1cccnc1N(C(=O)c1ccc(C2=NOC(C)(C)C2=O)cc1)[C@@H]1CCCNC1 [WX002]
 | < 10 µM | COc1cccnc1N(C(=O)c1ccc(C2=NOC(C)(C)C2=O)cc1)[C@@H]1CCCNC1 [WX009]
 | < 10 µM | CC1(C)ON=C(c2ccc(C(=O)N(c3ncccc3F)[C@@H]3CCCNC3)cc2)C1=O [WX013]
37.7% | < 10 µM | Cc1cc(C2=NOC(C)(C)C2=O)ccc1C(=O)N(c1ncccc1Cl)[C@@H]1CCCNC1 [WX021]
 | < 10 µM | Cc1cc(C(=O)N(c2ncccc2Cl)[C@@H]2CCCNC2)ccc1C1=NOC(C)(C)C1=O [WX022]
 | < 10 µM | Cc1cccnc1N(C(=O)c1ccc(C2=NOC(C)(C)C2O)cc1)[C@@H]1CCCNC1 (stereo partly drawn) [WX025]
 | < 10 µM | CC1(C)ON=C(c2ccc(C(=O)N(c3ncccc3-c3ccncc3)[C@@H]3CCCNC3)cc2)C1=O [WX037]
 | < 10 µM | CC1(C)ON=C(c2ccc(C(=O)N(c3ncccc3-c3ccccc3)[C@@H]3CCCNC3)cc2)C1=O [WX038]
 | < 10 µM | Cc1cccnc1N(C(=O)c1ccc(C2=NOC(C)(C)/C2=N\O)cc1)[C@@H]1CCCNC1 [WX039]
